# A melting point compilation (Tetko et al.; mined from patent text by program, amines drawn as free bases though some values may be those of a salt)
row,Structure (SMILES),melting point [°C]
1,CCOC(=O)C(=O)Nc1coc2ccccc2c1=O,146 to 148
2,CCCCS(=O)(=O)NC(CNS(=O)(=O)c1cccc(C(=O)C2CCC3(CCNCC3)CC2)c1)C(=O)O (stereo unspecified),225 to 235
3,O=C(OCc1ccccc1)N1CCN(c2ccccc2)CC1,49 to 51
4,CN1CCN(C(=O)Cc2c(-c3ccc(Cl)cc3)nc3ccccn23)CC1,175
5,CCCC(=O)NCCCC1c2ccccc2C=Cc2ccccc21,76 to 80
6,CC(C)Cc1ccc(CCc2cc3c(s2)NC(=S)C(C)N=C3c2ccccc2Cl)cc1 (stereo unspecified),188 to 191
7,CC(C)(C)OC(=O)CN1CC(c2ccc3ccccc3c2)SCC(N2C(=O)c3ccccc3C2=O)C1=O (stereo unspecified),208 to 210
8,CC=CC(C)=C1C(=O)OC(=O)C1c1cc(C)n(-c2ccccc2)c1C (stereo unspecified),172
9,Cc1cc(C)c2ncc(C(=O)O)c(-c3ccccc3Cl)c2c1,234 to 235
10,CCc1nc(C(=O)OC)c(Cl)c(N)c1F,109 to 110
11,CCCCCCCC(=O)CCCCCC(=O)N[C@@H](C)C(=O)OC,61 to 64
12,Cc1cccc(-c2nc3c(o2)C(=O)c2ccccc2C3=O)c1,255
13,O=C1CCC(N2C=Nc3ccccc3C2)C(=O)N1 (stereo unspecified),258
14,CC(C)(C)OC(=O)N1CCN(CC(O)CNc2ccc(CC#N)cc2)CC1 (stereo unspecified),86 to 87
15,COc1ccc(NC(=O)NCc2cccc3c2CN(C2CCC(=O)NC2=O)C3=O)cc1 (stereo unspecified),320 to 322
16,O=CNCC1c2ccccc2C=Cc2ccccc21,115 to 118
17,CC12CCC(=O)C=C1N(C(C)(C)C)CC1C2CCC2(CC(=O)O)C(C(=O)O)CCC12 (stereo unspecified),215 to 216
18,O=C(O)c1ccc(C=CC=CC(=O)c2ccccc2)cc1,210 to 214
19,CCN(CC)C(=O)NC1CC2c3cccc4[nH]c(C#Cc5cccs5)c(c34)CC2N(C)C1 (stereo unspecified),252 to 256
20,CC(C)(C)NC(=O)c1nn(-c2ccc(Cl)cc2)c2c1C1CCC2CC1,198 to 200
21,Nc1ccc(C(=O)c2ccccc2)c(Cl)c1,120 to 130

row,Structure (SMILES),melting point [°C]
1,CCC(C)P(=S)(NP(=S)(C(C)CC)C(C)CC)C(C)CC (stereo unspecified),110 to 114
2,Cc1cccc(-n2c(CF)nc3ccc(N)cc3c2=O)c1C,189 to 192
3,C=Cc1nc(C(=O)OC)c(Cl)c(N)c1F,68 to 71
4,CCCCCCCCCCCCCCc1ccc(N(CC(=O)OC)CC(=O)OC)cc1,160 to 165
5,COc1cc2c(cc1OC(C)=O)CCC1C3=CC=C(OC(C)=O)C3(C)CCC21 (stereo unspecified),191 to 194
6,COc1ccc(-c2nc3cc(Cl)cc(C#CCN(O)C(=O)OC(C)(C)C)c3o2)cc1OC1CCCC1,157 to 161
7,Cc1cnc2c(c1)COP(=S)(c1ccccc1)O2 (stereo unspecified),97 to 98
8,OC1CCCc2ccc(OCc3ccc4ccccc4n3)cc21 (stereo unspecified),113 to 115
9,COC(=O)c1sccc1S(=O)(=O)NC(=O)Nc1nc(C)cc(OC(F)F)n1,178 to 179
10,C[C@@H]1S[C@@H](C(=O)Nc2ccc(CN3CCCC3)cc2)Cc2cc3c(cc2C1=O)OCO3,186 to 188
11,CSSc1ccc([N+](=O)[O-])cc1C(Cl)(Cl)Cl,76
12,Cc1ccc(S(=O)(=O)Nc2nc(-c3ccc(OCc4ccccc4)cc3)cs2)cc1,166 to 167
13,Cc1c(C(=O)C=Cc2ccccc2F)c2ccccc2n1CCN1CCOCC1,113 to 116
14,CC(C)(C)NCC(O)COc1ccc(-c2nc(-c3ccccc3)c[nH]2)cc1 (stereo unspecified),176 to 178
15,CCCCCCc1ncc(C(=O)O)s1,73
16,O=C(O)c1cccnc1C(=O)c1ccccc1,115 to 121
17,CC(C)(C)OC(=O)COc1ccc(NC(=O)NC(=O)c2ccc(C(N)=S)cc2)cc1,248
18,CC(C)CCN1CNC(=O)C12CCNCC2,103 to 105
19,CNC(=O)NC(=O)C(CC1CCCC1)c1ccc(-c2cccc3ccccc23)cc1 (stereo unspecified),85 to 88
20,CCOc1cc(C(CC(=O)O)N2Cc3ccccc3C2=O)ccc1OC (stereo unspecified),194

# Other lines, results leading:
row,melting point [°C],Structure (SMILES)
1,154 to 156,O=[N+]([O-])c1ccc2c(c1)NCc1ccccc1O2
2,92 to 96,O=C(CCN1CCN(c2ccc3ccccc3n2)CC1)c1csc2ccccc12
3,89 to 90,CCOC(=O)COc1cccc2c1OCC2=O
4,144 to 146,CCn1cc(C(=O)NCc2ccc(Cl)cc2)c(=O)c2cc(CCCO)sc21
5,230 to 232,O=C(CNc1ccccc1)Nc1c(Cl)ccc2nc(N3CC[C@@H](O)C3)ccc12
6,168 to 169,O=c1c(Cl)c(OCc2ccc(Cl)cc2Cl)cnn1-c1ccc(Cl)cc1
7,148 to 150,NC(=O)c1cccc(CSCCNC(=O)c2c(Cl)cccc2Cl)c1
8,198 to 199,O=C1C(c2ccccc2)=C(c2ccccc2)C(=O)N1c1ccc(Cl)cc1
9,210 to 211,CCn1nc(OC2CSCCC2=O)c(-c2ccc(F)cc2)c1-c1ccc(S(C)(=O)=O)cc1 (stereo unspecified)
10,76 to 77,CCC(CC)c1nn(-c2ccc(C(F)(F)F)nn2)cc1CCCOc1c(C)cccc1CC(=O)O
11,110 to 111,CN1C(=O)CCC2(C)C1=CCc1cc(F)ccc12 (stereo unspecified)
12,228 to 229,CCCCNS(=O)(=O)c1cc(C(=O)O)cc(N)c1Sc1ccc(NC(C)=O)cc1
13,46 to 47,Cc1ccnn1-c1ccc(Cl)c(Cl)c1
14,197 to 198,Cc1csc(NC(=O)C2(CN3CCN(c4nc(C)cs4)C3=O)C=CC=CC2)n1 (stereo unspecified)
15,193 to 199,Cn1ccnc1CCNS(=O)(=O)c1ccccc1[N+](=O)[O-]
16,149 to 150,CC(=O)N(C(C)=O)C1=C(N2CCN(c3ccc(F)cc3)CC2)C(=O)c2ccccc2C1=O
17,99 to 100,CCOC(=O)C(N)=Cc1ccc(OCC(O)CNC(C)(C)C)cc1 (stereo unspecified)
18,132 to 133,COc1ccc(C(=O)C=Cc2ccc(C#N)cc2)c(OC)c1OC
19,218 to 220,COC(=O)C1=C(O)c2ccc3ccccc3c2S(=O)(=O)N1
20,136 to 137,CCN(c1ccc(SC)cc1C#N)S(=O)(=O)c1ccc(C)cc1

row,melting point [°C],Structure (SMILES)
1,217 to 218,Cc1oc(-c2ccc(F)cc2)cc1C(=O)O
2,85 to 86,CCN(C(=O)OCc1ccccc1)c1c(OC)cc(C(=O)OC)cc1OC
3,85 to 87,CC(C(=O)O)c1ccc(Sc2nccs2)cc1 (stereo unspecified)
4,154 to 157,Clc1ncc(-c2ccsc2)cn1
5,69,COC(=O)CCC#Cc1cc(Cl)ccc1NS(=O)(=O)c1cccc(C)c1
6,251 to 254,CC12CCC3c4ccc(C(=O)O)cc4CCC3C1CCC2C(=O)c1ccc(F)cc1 (stereo unspecified)
7,217 to 218,CCn1ncc2c(NN=C(C)C)c(C(N)=O)cnc21
8,162,CC(=O)C(CCS(C)(=O)=O)(CCS(C)(=O)=O)C(C)=O
9,208 to 210,COc1cc2c(cc1OC)C(=CN1CCN(C(=O)C3CCCCO3)CC1)C(=O)N2 (stereo unspecified)
10,235 to 237,C=C(Br)c1cc(O)cc2nc(-c3ccc(O)cc3F)oc12
11,130 to 131,CNC(=O)c1cc(-c2ccc(SC)cc2)nn(CC(C)C)c1=O
12,130 to 134,CC(C)c1cccc(C(C)C)c1NC(=O)NS(=O)(=O)Cl
13,132 to 134,COC(=O)c1ccc(C(=O)OC)c(S(=O)(=O)NC(C)(C)C)c1
14,117 to 121,O=C(CCCCCCn1ccc2ccc([N+](=O)[O-])cc21)NS(=O)(=O)c1ccccc1
15,97 to 103,CCCCC1=NC2(CCCC2)C(=O)N1Cc1ccc(-c2ccccc2S(=O)(=O)Nc2noc(C)c2C)c(CN2CCCC2=O)c1
16,141 to 142,COC(=O)C1=C(C(OC)OC)NC(C)=C(c2nc(CCl)no2)C1c1cccc([N+](=O)[O-])c1 (stereo unspecified)
17,299 to 302,CC(C)COc1ccc(-c2nc3c(C(=O)O)cccc3[nH]2)cc1C#N
18,140 to 142,CCOC(=O)c1cnc2n(c1=O)-c1ccccc1N(C(=O)OCC)C2
19,164 to 165,CN(c1cccc2cc(C3=NCC(C)(CN)S3)[nH]c12)S(=O)(=O)c1cccs1 (stereo unspecified)
20,121 to 123,COC(=O)CC1CCc2cc(O)ccc2C1=O (stereo unspecified)

row,melting point [°C],Structure (SMILES)
1,303 to 307,O=c1c2c(Cc3ccccc3)n[nH]c2c2ccncc2n1-c1ccccc1
2,128 to 130,C=C(c1ccc(I)cc1)C(O)(Cn1cncn1)c1ccccc1Cl (stereo unspecified)
3,116 to 117,CSc1ccc(NS(=O)(=O)c2ccc(C)cc2)c([N+](=O)[O-])c1
4,21 to 22,O=[N+]([O-])C(F)(CCc1nnc(C(F)(F)C(F)(F)C(F)(F)F)o1)[N+](=O)[O-]
5,50 to 65,COc1ncccc1OCC(O)CNC(C)C (stereo unspecified)
6,128 to 130,CC(C)OC(=O)C1=C2SCC(=CC(=O)N3CCCCC3)N2CC1
7,153 to 154,O=C(O)Cc1ccc(I)c(OCC(F)(F)F)c1
8,78 to 79,Cc1ccc(-c2nc(COc3ccc(CCCn4ccnc4)cc3)cs2)s1
9,224,COc1cc2cc(C#N)c(Cl)nc2cc1OC
10,197 to 199,CCc1nc(N)nc(N)c1-c1ccc(N(Cc2ccccc2)Cc2ccccc2)c([N+](=O)[O-])c1
11,199 to 201,N#CC(N)=C(C#N)N=Cc1cnn(-c2c(Cl)cc(OC(F)(F)F)cc2Cl)n1
12,160 to 162,COc1ccc(SC(=C2NCCCS2)[N+](=O)[O-])cc1
13,186 to 192,COc1cnn(C)c(=O)c1-c1c(C)cc(C)cc1C
14,188,FC(F)(F)c1cc(-c2ccc(Cl)cc2)nc2c(-c3cccnc3)cnn12
15,142 to 143,NC(=O)N1CCSC1c1ccccc1OCCN1CCN(c2cccc(F)c2)CC1 (stereo unspecified)
16,120 to 122,Cc1cc(F)ccc1Nc1nc(N2CCc3ccccc3C2C)c2cccc(OCCO)c2n1 (stereo unspecified)
17,167,COc1ccc(Br)c(C(=O)N2CCN(S(=O)(=O)c3ccccc3F)CC2)c1
18,150 to 152,Clc1nnc(Cc2ccc(OCc3ccccc3)cc2)c2ccccc12
19,145 to 148,CCCNC(C)=C1C(=O)OC(=O)C(C(C)=O)=C1O
20,100 to 125,CC(COc1ccc(CC2SC(=O)NC2=O)cc1)NCC(O)c1cccc(Cl)c1 (stereo unspecified)
